From patent publication US20010044463A1, “Methods for controlling gram negative bacteria in mammals” (priority 1997, published 2001)
Converted amounts (≈) assume the structure as drawn.

Legend:
Staph ATCC 14775 = assay: Blood agar plate growth inhibition, control organism; format: cell-based
Experimental: (§1) Monensin (Sigma Cat. No. M-5273) was dissolved in 100% absolute ethanol (AAPER Alcohol and Chemical Co.) at a concentration of 20 mg/ml. Subsequent dilutions were made in ethanol immediately prior to use. Nigericin (Sigma Cat. No. N-7143) was dissolved in DMSO at 2 mg/ml. Subsequent dilutions were made in BHI medium (Brain heart infusion broth, Difco #0037-07-0) immediately prior to use.
(§2) Blood agar base (BAB) was prepared containing 1.5% agar and autoclaved. 20 ml samples of autoclaved BAB were poured into 50 mL tubes and placed in a 56° C. water bath.
(§3) 100 μl of a drug (final concentration equivalent to 1:200 of original concentration) and 1.2 ml of sheep blood (Colorado Senun Company # CS-1112) (blood diluted in a 1:1 buffer providing a 3% concentration of blood per 20 ml medium sample) were added to 20 ml sample of media and mixed. The mixed media preparation was poured into a petri dished and allowed to solidify.
Prior to inoculation of petri plates, bacteria or cultures were examined for morphology under a phase microscope to confirm motility and physical characteristics, e.g., spiral shaped. The organisms were washed off the plate into PBS (Phosphate buffered saline) (80.0 g NaCl, 2.0 g KCl, 2.4 g KH2PO4 11.5 g Na2HPO4 or 24.4 g Na2HPO4/2H2O per 1 liter deionized water, pH 7.2, sterilized by autoclaving) and diluted into BHI at a concentration of 10^8/ml (O.D. of 0.3 units diluted 1:30). Ten microliters of solution containing 10^6 organisms were spread onto a petri plate and grown under microaerophilic conditions for 3 days unless specified. […]
(§4) Inhibition of growth was determined by the amount of colonies present within the petri plate. The following factors were used for growth inhibition: ±=0-20 colonies, +=20-50 colonies, ++=50-200 colonies and +++=200+ colonies.

[1] = test system: H. pylori (urease negative) (Wild strain of ATCC 43504); assay: Minimum Inhibitory Concentration (MIC) blood agar plate growth inhibition; format: cell-based, Helicobacter pylori; conditions: Table III
Experimental: as §1, §2, §3
(§5) Prior to inoculation of petri plates, bacteria or cultures were examined for morphology under a phase microscope to confirm motility and physical characteristics, e.g., spiral shaped. The organisms were washed off the plate into PBS (Phosphate buffered saline) (80.0 g NaCl, 2.0 g KCl, 2.4 g KH2PO4 11.5 g Na2HPO4 or 24.4 g Na2HPO4/2H2O per 1 liter deionized water, pH 7.2, sterilized by autoclaving) and diluted into BHI at a concentration of 10^8/ml (O.D. of 0.3 units diluted 1:30). Ten microliters of solution containing 10^6 organisms were spread onto a petri plate and grown under microaerophilic conditions for 3 days unless specified. Control organisms were grown under microaerophilic conditions.
as §4

[2] = test system: H. pylori (urease positive) ATCC Number 51652; assay: as above; format: cell-based, Helicobacter pylori; conditions: Table VIII
Experimental: as §1, §2, §3, §5, §4

H. pylori ATCC 43504 = assay: as above; format: cell-based, Helicobacter pylori
Method in brief: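 Compound dilutions mixed into blood agar base (1.5% agar) and poured as plates; 10^6 H. pylori organisms spread per plate and grown microaerophilically for 3 days unless specified. Inhibition scored by colony count: ±=0-20, +=20-50, ++=50-200, +++=200+ colonies.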

SMILES: CC[C@@]1([C@@H]2O[C@@H]([C@H]3O[C@@](O)(CO)[C@H](C)C[C@@H]3C)C[C@@H]2C)CC[C@H]([C@]2(C)CC[C@]3(C[C@H](O)[C@@H](C)[C@@H]([C@@H](C)[C@@H](OC)[C@H](C)C(=O)O)O3)O2)O1 [Monensin, monensin]
- growth (amount of colonies present within the petri plate) (Staph ATCC 14775; Table XIV, Non-microaerophilic conditions, final drug concentration 0.1 ng/ml): (+++) (+++=200+ colonies)
- growth (amount of colonies present within the petri plate) (Staph ATCC 14775; Table XIV, Non-microaerophilic conditions, final drug concentration 1 ng/ml): (+++) (+++=200+ colonies)
- growth (amount of colonies present within the petri plate) (Staph ATCC 14775; Table XIV, Non-microaerophilic conditions, final drug concentration 10 ng/ml): (+++) (+++=200+ colonies)
- growth (amount of colonies present within the petri plate) (Staph ATCC 14775; Table XIV, Non-microaerophilic conditions, final drug concentration 100 ng/ml): (+++) (+++=200+ colonies)
- growth (amount of colonies present within the petri plate) (Staph ATCC 14775; Table XIV, Non-microaerophilic conditions, final drug concentration 1 μg/ml): (+++***) (+++=200+ colonies)
- growth (amount of colonies present within the petri plate) (Staph ATCC 14775; Table XIV, Non-microaerophilic conditions, final drug concentration 10 μg/ml): No growth
- growth (amount of colonies present within the petri plate) (Staph ATCC 14775; Table XVI, Non-aerophilic conditions, final drug concentration 0.098 μg/ml): (+++) (+++=200+ colonies)
- growth (amount of colonies present within the petri plate) (Staph ATCC 14775; Table XVI, Non-aerophilic conditions, final drug concentration 0.195 μg/ml): (+++) (+++=200+ colonies)
- growth (amount of colonies present within the petri plate) (Staph ATCC 14775; Table XVI, Non-aerophilic conditions, final drug concentration 0.39 μg/ml): (+++) (+++=200+ colonies)
- growth (amount of colonies present within the petri plate) (Staph ATCC 14775; Table XVI, Non-aerophilic conditions, final drug concentration 0.78 μg/ml): (++) (++=50-200 colonies)
- growth (amount of colonies present within the petri plate) (Staph ATCC 14775; Table XVI, Non-aerophilic conditions, final drug concentration 1.56 μg/ml): (+)^2 (+=20-50 colonies)
- growth (amount of colonies present within the petri plate) (Staph ATCC 14775; Table XVI, Non-aerophilic conditions, final drug concentration 3.125 μg/ml): (+)^2 (+=20-50 colonies)
- growth (amount of colonies present within the petri plate) (Staph ATCC 14775; Table XVI, Non-aerophilic conditions, final drug concentration 6.25 μg/ml): (+)^2 (+=20-50 colonies)
- growth (amount of colonies present within the petri plate) (Staph ATCC 14775; Table XVI, Non-aerophilic conditions, final drug concentration 12.5 μg/ml): (±)^1 (±=0-20 colonies)
- growth (amount of colonies present within the petri plate) (Staph ATCC 14775; Table XVI, Non-aerophilic conditions, final drug concentration 25 μg/ml): (±)^1 (±=0-20 colonies)
- growth (amount of colonies present within the petri plate) (Staph ATCC 14775; Table XVI, Non-aerophilic conditions, final drug concentration 50 μg/ml): No growth
- growth (amount of colonies present within the petri plate) (Staph ATCC 14775; Table XVI, Non-aerophilic conditions, final drug concentration 100 μg/ml): No growth
- growth (amount of colonies present within the petri plate) ([1]; final drug concentration 0.1 ng/ml): (+++) (+++=200+ colonies)
- growth (amount of colonies present within the petri plate) ([1]; final drug concentration 1 ng/ml): (+++) (+++=200+ colonies)
- growth (amount of colonies present within the petri plate) ([1]; final drug concentration 10 ng/ml): (+++) (+++=200+ colonies)
- growth (amount of colonies present within the petri plate) ([1]; final drug concentration 100 ng/ml): (+++) (+++=200+ colonies)
- growth (amount of colonies present within the petri plate) ([1]; final drug concentration 1 μg/ml): No growth
- growth (amount of colonies present within the petri plate) ([1]; final drug concentration 10 μg/ml): No growth
- growth (amount of colonies present within the petri plate) ([2]; final drug concentration 0.098 μg/ml): No growth
- growth (amount of colonies present within the petri plate) ([2]; final drug concentration 0.195 μg/ml): No growth
- growth (amount of colonies present within the petri plate) ([2]; final drug concentration 0.39 μg/ml): No growth
- growth (amount of colonies present within the petri plate) ([2]; final drug concentration 0.78 μg/ml): No growth
- growth (amount of colonies present within the petri plate) ([2]; final drug concentration 1.56 μg/ml): No growth
- growth (amount of colonies present within the petri plate) ([2]; final drug concentration 3.125 μg/ml): No growth
- growth (amount of colonies present within the petri plate) ([2]; final drug concentration 6.25 μg/ml): No growth
- growth (amount of colonies present within the petri plate) ([2]; final drug concentration 12.5 μg/ml): No growth
- growth (amount of colonies present within the petri plate) ([2]; final drug concentration 25 μg/ml): No growth
- growth (amount of colonies present within the petri plate) ([2]; final drug concentration 50 μg/ml): No growth
- growth (amount of colonies present within the petri plate) ([2]; final drug concentration 100 μg/ml): No growth
- MIC (H. pylori ATCC 43504; Helicobacter pylori, ATCC43504): 0.39 µg/mL (≈ 0.581 µM)
- growth (amount of colonies present within the petri plate) (H. pylori ATCC 43504; Table I, final drug concentration 0.1 ng/ml): (+++) (+++=200+ colonies)
- growth (amount of colonies present within the petri plate) (H. pylori ATCC 43504; Table I, final drug concentration 1 ng/ml): (+) (+=20-50 colonies)
- growth (amount of colonies present within the petri plate) (H. pylori ATCC 43504; Table I, final drug concentration 10 ng/ml): (+) (+=20-50 colonies)
- growth (amount of colonies present within the petri plate) (H. pylori ATCC 43504; Table I, final drug concentration 100 ng/ml): No growth
- growth (amount of colonies present within the petri plate) (H. pylori ATCC 43504; Table I, final drug concentration 1 μg/ml): No growth
- growth (amount of colonies present within the petri plate) (H. pylori ATCC 43504; Table I, final drug concentration 10 μg/ml): No growth
- growth (amount of colonies present within the petri plate) (H. pylori ATCC 43504; Table II, urease positive, final drug concentration 1 ng/ml): (+++) (+++=200+ colonies)
- growth (amount of colonies present within the petri plate) (H. pylori ATCC 43504; Table II, urease positive, final drug concentration 100 ng/ml): (+++) (+++=200+ colonies)
- growth (amount of colonies present within the petri plate) (H. pylori ATCC 43504; Table II, urease positive, final drug concentration 10 μg/ml): No growth
- growth (amount of colonies present within the petri plate) (H. pylori ATCC 43504; Table II, urease positive, final drug concentration 0.1 nglml): (+++) (+++=200+ colonies)
- growth (amount of colonies present within the petri plate) (H. pylori ATCC 43504; Table IV, urease positive, final drug concentration 0.1 ng/ml): (+++) (+++=200+ colonies)
- growth (amount of colonies present within the petri plate) (H. pylori ATCC 43504; Table IV, urease positive, final drug concentration 1 ng/ml): (+++) (+++=200+ colonies)
- growth (amount of colonies present within the petri plate) (H. pylori ATCC 43504; Table IV, urease positive, final drug concentration 10 ng/ml): (+++) (+++=200+ colonies)
- growth (amount of colonies present within the petri plate) (H. pylori ATCC 43504; Table IV, urease positive, final drug concentration 100 ng/ml): (+++) (+++=200+ colonies)
- growth (amount of colonies present within the petri plate) (H. pylori ATCC 43504; Table IV, urease positive, final drug concentration 1 μg/ml): No growth
- growth (amount of colonies present within the petri plate) (H. pylori ATCC 43504; Table IV, urease positive, final drug concentration 10 μg/ml): No growth
- growth (amount of colonies present within the petri plate) (H. pylori ATCC 43504; Table V, in the presence of 10 mM urea, final drug concentration 0.1 ng/ml, Nigericin assay done in duplicate): (+++) (+++=200+ colonies)
- growth (amount of colonies present within the petri plate) (H. pylori ATCC 43504; Table V, in the presence of 10 mM urea, final drug concentration 1 ng/ml, Nigericin assay done in duplicate): (+++) (+++=200+ colonies)
- growth (amount of colonies present within the petri plate) (H. pylori ATCC 43504; Table V, in the presence of 10 mM urea, final drug concentration 10 ng/ml, Nigericin assay done in duplicate): (+++) (+++=200+ colonies)
- growth (amount of colonies present within the petri plate) (H. pylori ATCC 43504; Table V, in the presence of 10 mM urea, final drug concentration 100 ng/ml, Nigericin assay done in duplicate): (+++) (+++=200+ colonies)
- growth (amount of colonies present within the petri plate) (H. pylori ATCC 43504; Table V, in the presence of 10 mM urea, final drug concentration 1 μg/ml, Nigericin assay done in duplicate): No growth
- growth (amount of colonies present within the petri plate) (H. pylori ATCC 43504; Table V, in the presence of 10 mM urea, final drug concentration 10 μg/ml, Nigericin assay done in duplicate): No growth
- growth (amount of colonies present within the petri plate) (H. pylori ATCC 43504; Table VI, in the presence of 2.5 mM urea, final drug concentration 1 ng/ml): (+++) (+++=200+ colonies)
- growth (amount of colonies present within the petri plate) (H. pylori ATCC 43504; Table VI, in the presence of 2.5 mM urea, final drug concentration 10 ng/ml): (+++) (+++=200+ colonies)
- growth (amount of colonies present within the petri plate) (H. pylori ATCC 43504; Table VI, in the presence of 2.5 mM urea, final drug concentration 1 μg/ml): No growth
- growth (amount of colonies present within the petri plate) (H. pylori ATCC 43504; Tables IX-XIII, final drug concentration 0.098 μg/ml): (+++) (+++=200+ colonies)
- growth (amount of colonies present within the petri plate) (H. pylori ATCC 43504; Tables IX-XIII, final drug concentration 0.195 μg/ml): (++) (++=50-200 colonies)
- growth (amount of colonies present within the petri plate) (H. pylori ATCC 43504; Tables IX-XIII, final drug concentration 0.39 μg/ml): (±) (±=0-20 colonies)
- growth (amount of colonies present within the petri plate) (H. pylori ATCC 43504; Tables IX-XIII, final drug concentration 0.78 μg/ml): No growth
- growth (amount of colonies present within the petri plate) (H. pylori ATCC 43504; Tables IX-XIII, final drug concentration 6.25 μg/ml): No growth
- growth (amount of colonies present within the petri plate) (H. pylori ATCC 43504; Tables IX-XIII, final drug concentration 12.5 μg/ml): No growth
- growth (amount of colonies present within the petri plate) (H. pylori ATCC 43504; Tables IX-XIII, final drug concentration 25 μg/ml): No growth
- growth (amount of colonies present within the petri plate) (H. pylori ATCC 43504; Tables IX-XIII, final drug concentration 50 μg/ml): No growth
- growth (amount of colonies present within the petri plate) (H. pylori ATCC 43504; Tables IX-XIII, final drug concentration 100 μg/ml): No growth
